Source: patent US9637473B2, “Acrylamide derivatives as antimalarial agents” (priority 2013, dated 2017)

Each molecule was assayed on P. Falciparum NF54 (assay: Plasmodium falciparum in vitro assay ([3H]-hypoxanthine incorporation)). Details: Plasmodium falciparum, Erythrocyte, P. Falciparum NF54, erythrocytic stages in human red blood cells, 50% human serum.
Assay type: cell-based
Procedure, shortened: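 This in vitro antimalarial assay used P. falciparum erythrocytic stages cultured in human erythrocytes and measured [3H]-hypoxanthine incorporation. Radioactivity on the dried filters, placed in plastic foil with 10 mL scintillation fluid, was counted in a Betaplate liquid scintillation counter. Sigmoidal inhibition curves built in Microsoft Excel gave the IC50.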

Going from `CN(c1ccncc1)c1ccc(CN(C(=O)/C=C/c2ccc(C(F)(F)F)cc2)[C@@H]2CCCN(C3CCCC3)C2)cc1` [Example 59, (R,E)-N-(1-cyclopentylpiperidin-3-yl)-N-(4-(methyl(pyridin-4-yl)amino)benzyl)-3-(4-(trifluoromethyl)phenyl)acrylamide] to `CN(c1ccncc1)c1ccc(CN(C(=O)/C=C/c2ccc(C(F)(F)F)cc2)C2CC3(C2)CN(C2CCCC2)C3)cc1` [Example 74, (E)-N-(2-cyclopentyl-2-azaspiro[3.3]heptan-6-yl)-N-(4-(methyl(pyridin-4-yl)amino)benzyl)-3-(4-(trifluoromethyl)phenyl)acrylamide], the IC50 falls from 0.08 µM to 0.041 µM (2-fold).

`CC(C)CCN1CCC[C@H](N(Cc2ccc(N(C)c3ccncc3)cc2)C(=O)/C=C/c2ccc(C(F)(F)F)cc2)C1` [Example 61, (S,E)-N-(1-isopentylpiperidin-3-yl)-N-(4-(methyl(pyridin-4-yl)amino)benzyl)-3-(4-(trifluoromethyl)phenyl)acrylamide] and `CC(C)CCN1CCC[C@@H](N(Cc2ccc(N(C)c3ccncc3)cc2)C(=O)/C=C/c2ccc(C(F)(F)F)cc2)C1` [Example 62, (R,E)-N-(1-isopentylpiperidin-3-yl)-N-(4-(methyl(pyridin-4-yl)amino)benzyl)-3-(4-(trifluoromethyl)phenyl)acrylamide] are within 1.5-fold of each other in IC50: 0.082 µM for the first, 0.07 µM for the second.

Compared with `CN1CCC(N2CCC3(CCC(N(Cc4ccc(N(C)c5ccncc5)cc4)C(=O)/C=C/c4ccc(C(F)(F)F)cc4)CC3)CC2)CC1` [Example 65, (E)-N-(4-(methyl(pyridin-4-yl)amino)benzyl)-N-(3-(1-methylpiperidin-4-yl)-3-azaspiro[5.5]undecan-9-yl)-3-(4-(trifluoromethyl)phenyl)acrylamide], `CN(c1ccncc1)c1ccc(CN(C(=O)/C=C/c2ccc(C(F)(F)F)cc2)C2CCC3(CC2)CCN(C2CCCC2)CC3)cc1` [Example 67, (E)-N-(3-cyclopentyl-3-azaspiro[5.5]undecan-9-yl)-N-(4-(methyl(pyridin-4-yl)amino)benzyl)-3-(4-(trifluoromethyl)phenyl)acrylamide] is 1.9-fold higher in IC50: 0.021 µM for the first, 0.04 µM for the second.

`CC(C)CCN1CCC2(CCC(N(Cc3ccc(N(C)c4ccncc4)cc3)C(=O)/C=C/c3ccc(C(F)(F)F)cc3)CC2)CC1` [Example 69, (E)-N-(3-isopentyl-3-azaspiro[5.5]undecan-9-yl)-N-(4-(methyl(pyridin-4-yl)amino)benzyl)-3-(4-(trifluoromethyl)phenyl)acrylamide] and `CC(C)CCN1CC2(CC(N(Cc3ccc(N(C)c4ccncc4)cc3)C(=O)/C=C/c3ccc(C(F)(F)F)cc3)C2)C1` [Example 75, (E)-N-(2-isopentyl-2-azaspiro[3.3]heptan-6-yl)-N-(4-(methyl(pyridin-4-yl)amino)benzyl)-3-(4-(trifluoromethyl)phenyl)acrylamide] are within 1.5-fold of each other in IC50: 0.041 µM for the first, 0.03 µM for the second.

Going from `CN1CCC(N2CC3(CC(N(Cc4ccc(N(C)c5ccncc5)cc4)C(=O)/C=C/c4ccc(C(F)(F)F)cc4)C3)C2)CC1` [Example 73, (E)-N-(4-(methyl(pyridin-4-yl)amino)benzyl)-N-(2-(1-methylpiperidin-4-yl)-2-azaspiro[3.3]heptan-6-yl)-3-(4-(trifluoromethyl)phenyl)acrylamide] to `CCN1CCC[C@H](N(Cc2ccc(N(C)c3ccncc3)cc2)C(=O)/C=C/c2ccc(C(F)(F)F)cc2)C1` [Example 82, (E)-N-((S)-1-Ethyl-piperidin-3-yl)-N-[4-(methyl-pyridin-4-yl-amino)-benzyl]-3-(4-trifluoromethyl-phenyl)-acrylamide], the IC50 rises from 0.042 µM to 0.14 µM (3.3-fold). The first is the more potent here.

Going from `CC(C)N1CCC[C@H](N(Cc2ccc(N(C)c3ccncc3)cc2)C(=O)/C=C/c2ccc(C(F)(F)F)cc2)C1` [Example 83, (E)-N-((S)-1-Isopropyl-piperidin-3-yl)-N-[4-(methyl-pyridin-4-yl-amino)-benzyl]-3-(4-trifluoromethyl-phenyl)-acrylamide] to `O=C(/C=C/c1ccc(C(F)(F)F)cc1)N(Cc1ccc(Nc2ccncc2)cc1)C1CCN(C2CCCC2)CC1` [Example 86, (E)-N-(1-Cyclopentyl-piperidin-4-yl)-N-[4-(pyridin-4-ylamino)-benzyl]-3-(4-trifluoromethyl-phenyl)-acrylamide], the IC50 falls from 0.12 µM to 0.043 µM (2.8-fold).

First: Cc1cc(Nc2ccc(CN(C(=O)/C=C/c3ccc(C(F)(F)F)cc3)C3CCN(C4CCCC4)CC3)cc2)c2ccccc2n1 [Example 85, (E)-N-(1-Cyclopentyl-piperidin-4-yl)-N-[4-(2-methyl-quinolin-4-ylamino)-benzyl]-3-(4-trifluoromethyl-phenyl)-acrylamide]
Second: O=C(/C=C/c1ccc(C(F)(F)F)cc1)N(Cc1ccc(Nc2ccccc2)cc1)C1CCN(C2CCCC2)CC1 [Example 93, (E)-N-(1-Cyclopentyl-piperidin-4-yl)-N-(4-phenylamino-benzyl)-3-(4-trifluoromethyl-phenyl)-acrylamide]
The IC50 of the first is 9.7-fold lower: 0.043 µM for the first, 0.418 µM for the second.

First: Cc1cc(Nc2ccc(CN(C(=O)/C=C/c3ccc(C(F)(F)F)cc3)C3CCN(C4CCCC4)CC3)cc2)cc(C)n1 [Example 87, (E)-N-(1-Cyclopentyl-piperidin-4-yl)-N-[4-(2,6-dimethyl-pyridin-4-ylamino)-benzyl]-3-(4-trifluoromethyl-phenyl)-acrylamide]
Second: COc1cc(Nc2ccc(CN(C(=O)/C=C/c3ccc(C(F)(F)F)cc3)C3CCN(C4CCCC4)CC3)cc2)ccn1 [Example 94, (E)-N-(1-Cyclopentyl-piperidin-4-yl)-N-[4-(2-methoxy-pyridin-4-ylamino)-benzyl]-3-(4-trifluoromethyl-phenyl)-acrylamide]
The IC50 of the first is 10-fold lower: 0.028 µM for the first, 0.286 µM for the second.

Compared with `COc1ccc2nccc(Nc3ccc(CN(C(=O)/C=C/c4ccc(C(F)(F)F)cc4)C4CCN(C5CCCC5)CC4)cc3)c2c1` [Example 88, (E)-N-(1-Cyclopentyl-piperidin-4-yl)-N-[4-(6-methoxy-quinolin-4-ylamino)-benzyl]-3-(4-trifluoromethyl-phenyl)-acrylamide], `O=C(/C=C/c1ccc(C(F)(F)F)cc1)N(Cc1ccc(Nc2ccnc3cc(C(F)(F)F)ccc23)cc1)C1CCN(C2CCCC2)CC1` [Example 90, (E)-N-(1-Cyclopentyl-piperidin-4-yl)-3-(4-trifluoromethyl-phenyl)-N-[4-(7-trifluoromethyl-quinolin-4-ylamino)-benzyl]-acrylamide] is 6.6-fold higher in IC50: 0.021 µM for the first, 0.138 µM for the second.

`O=C(/C=C/c1ccc(C(F)(F)F)cc1)N(Cc1ccc(Nc2cc(C(F)(F)F)nc3c(C(F)(F)F)cccc23)cc1)C1CCN(C2CCCC2)CC1` [Example 89, (E)-N-[4-(2,8-Bis-trifluoromethyl-quinolin-4-ylamino)-benzyl]-N-(1-cyclopentyl-piperidin-4-yl)-3-(4-trifluoromethyl-phenyl)-acrylamide] and `O=C(/C=C/c1ccc(C(F)(F)F)cc1)N(Cc1ccc(Nc2cncnc2)cc1)C1CCN(C2CCCC2)CC1` [Example 91, (E)-N-(1-Cyclopentyl-piperidin-4-yl)-N-[4-(pyrimidin-5-ylamino)-benzyl]-3-(4-trifluoromethyl-phenyl)-acrylamide] are within 1.5-fold of each other in IC50: 0.337 µM for the first, 0.291 µM for the second.

`O=C(/C=C/c1ccc(C(F)(F)F)cc1)N(Cc1ccc(Nc2ccncn2)cc1)C1CCN(C2CCCC2)CC1` [Example 92, (E)-N-(1-Cyclopentyl-piperidin-4-yl)-N-[4-(pyrimidin-4-ylamino)-benzyl]-3-(4-trifluoromethyl-phenyl)-acrylamide] gave an IC50 of 0.269 µM.
